Assay results: patent publication US6203776A, “Method for identifying adrenergic receptor antagonists having good tolerability” (University Technology Corporation, priority 1998, dated 2001)

How the values were obtained:
[1] = test system: human β1 or β2 receptors; test: Inverse agonist activity: inhibition of basal adenylyl cyclase activity (cAMP generation) in Sf9 membranes; format: biochemical; conditions: concentration 10×Ki for the β2 receptor
Procedure: Sf9 cells were transfected with a baculovirus expression system coding for human β1 or β2 receptors as described in Chidiac et al., Molec.
Adenylyl cyclase activity of Sf9 membranes was measured as described in Chidiac et al., Molec. […] The inhibition of basal cAMP generation in this system is a measure of inverse agonism.

[2] = test system: β1, β2 and α1 adrenergic receptors; conditions: Yoshikawa et al., Eur. Heart J. 1996; cited from earlier work

CC(C)(Cc1c[nH]c2ccccc12)NCC(O)COc1ccccc1C#N (centres unmarked) [bucindolol]
rank order of inverse agonist activity (FIG. 1B) [1]: metoprolol>propranolol≥carvedilol>xamoterol>bucindolol | adrenergic receptor subtype selectivity / rank order of potency [2]: nonselective for β1 and β2 adrenergic receptors
